Holding throughout (type): in vivo
Test [1] deals with Cucurbit Leaf Beetle (Aulacophora femoralis). Kind of test: Cucurbit leaf beetle (Aulacophora femoralis) cucumber leaf dip test. The note with it: after 7 days. An outline of the steps:
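Cucumber leaves dipped in compound formulated with DMF and polyoxyethylene alkyl phenyl ether, diluted in water, with ammonium salt or ammonium salt plus penetration enhancer at 1000 ppm added if necessary; dried leaves placed on sterilized soil with five second-instar larvae. Kept at 25° C; larval mortality counted after 7 days.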

Test [2] relates to Two-Spotted Spider Mite (Tetranychus urticae). Kind of test: Two-spotted spider mite (Tetranychus urticae) spray test on kidney bean. The note with it: after 7 days. In a few lines: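 Kidney bean plants at the two-leaf stage carried 50-100 adult mites and were sprayed one day later with compound in DMF/polyoxyethylene alkyl phenyl ether diluted in water. Ammonium salt and penetration enhancer at 1000 ppm were added if needed. Acaricidal activity (% mites killed) was scored after 7 days in a greenhouse.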

In the next test the test system is Thrips palmi. Kind of test: Thrips palmi spray test (THRIPL). Conditions: active compound concentration 20 ppm; after 6 days. As for the experimental part:
Unless not mentioned otherwise, the test solutions were prepared as follows:
Solvent: 3 parts by weight Dimethylformamide
Emulsifier: 1 part by weight Polyoxyethylene alkyl phenyl ether
In order to make an appropriate formulation of an active compound, 1 part by weight of the active compound is mixed with the above mentioned amount of solvent and emulsifier and the mixture is diluted with water to a prescribed concentration. Ammonium salt or ammonium salt and penetration enhancer in a dosage of 1000 ppm are added to the desired concentration if necessary.
The compound solutions are sprayed to a cucumber seedling (Cucumis sativus). After drying, the treated plant is placed in a plastic stand. About 100 thrips-eggs (Thrips palmi) on a piece of filter paper are attached to the plant and covered with a cage to keep 100% humidity. The plant is kept in a room at 23° C. After 6 days activity in % is evaluated by feeding damage degree. An insecticidal activity of 100 means that there was no feeding damage, whereas an insecticidal activity of 0% means that there is no difference to the untreated control.

For test [3], the system named is Larvae of Spodoptera litura. Kind of test: Larvae of Spodoptera litura, method using artificial feeds. Conditions: artificial feed, after 7 days. An outline of the steps:
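Compound formulated in dimethylformamide with polyoxyethylene alkyl phenyl ether emulsifier, water-diluted and poured onto artificial diet. Five 3rd-instar Spodoptera litura larvae per cup, held at 25° C and 50-60% humidity. Mortality after 7 days expressed as pesticidal ratio.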

[4] abbreviates: active compound concentration 4 ppm.
Where [5] appears, read: active compound concentration 20 ppm.

In turn, `CC(=O)NCc1ccc(N2CCC(c3cc(C(F)(F)F)cc(C(F)(F)F)c3)(C(F)(F)F)C2O)cc1C(F)(F)F` (mixture of isomers) [A1-56] showed an insecticidal activity in test [1] (setting [4]) of 100%. Further, the acaricidal activity in test [2] (setting [4]) stood at 100%. In addition, in the test with Thrips palmi, the “insecticidal activity (by feeding damage degree)” value is given as 98%. In addition, in test [3] (setting [4]), the “insecticidal activity (pesticidal ratio)” value is 100%.
Regarding `O=C(NCc1ccc(N2CCC(c3cc(C(F)(F)F)cc(C(F)(F)F)c3)(C(F)(F)F)C2O)cc1C(F)(F)F)C1CC1` (mixture of isomers) [A1-60], in test [1] (setting [4]), the insecticidal activity is listed as 100%. The compound further displayed an acaricidal activity in test [2] (setting [5]) of 100%. For the same compound, in the test with Thrips palmi, the “insecticidal activity (by feeding damage degree)” value came out at 98%. Besides, in test [3] (setting [4]), the “insecticidal activity (pesticidal ratio)” value is recorded as 100%.
As for `CCC(=O)NCc1ccc(N2CCC(c3cc(Cl)cc(Cl)c3)(C(F)(F)F)C2O)cc1F` (mixture of isomers) [A1-96], the insecticidal activity in test [1] (setting [5]) is 100%. The “insecticidal activity (by feeding damage degree)” value in the test on Thrips palmi is 90%.
Take `CCC(=O)NCc1ccc(N2CCC(c3ccc(F)c(C(F)(F)F)c3)(C(F)(F)F)C2O)nc1C(F)(F)F` (mixture of isomers) [A3-233]: the insecticidal activity in test [1] (setting [4]) and in test [1] (setting [5]) was 100% in each case. Moreover, the “insecticidal activity (by feeding damage degree)” value in the test with Thrips palmi was determined as 90%. Also, the “insecticidal activity (pesticidal ratio)” value in test [3] (setting [4]) and in test [3] (setting [5]) was 100% throughout.
Consider `CC(=O)NCc1ccc(N2CCC(c3cc(Cl)cc(C(F)(F)F)c3)(C(F)(F)F)C2O)nc1C(F)(F)F` (mixture of isomers) [A3-265], for which the insecticidal activity in test [1] (setting [4]) and in test [1] (setting [5]) was 100% each time. Moreover, the acaricidal activity in test [2] (setting [5]) came out at 100%. Also, the “insecticidal activity (by feeding damage degree)” value in the test with Thrips palmi is on record as 90%. Besides, the “insecticidal activity (pesticidal ratio)” value in test [3] (setting [4]) and in test [3] (setting [5]) was 100% throughout.
Turning to `O=C(CC1CC1)NCc1ccc(N2CCC(c3cc(Cl)cc(C(F)(F)F)c3)(C(F)(F)F)C2O)nc1C(F)(F)F` (mixture of isomers) [A3-270], the insecticidal activity in test [1] (setting [4]) and in test [1] (setting [5]) was 100% each time. Moreover, the acaricidal activity in test [2] (setting [4]) and in test [2] (setting [5]) was 100% in each case. Besides, in the test on Thrips palmi, the “insecticidal activity (by feeding damage degree)” value came to 90%. For the same compound, the “insecticidal activity (pesticidal ratio)” value in test [3] (setting [4]) and in test [3] (setting [5]) was 100% in each case.
`CS(=O)(=O)CC(=O)NCc1ccc(N2CCC(c3cccc(C(F)(F)F)c3)(C(F)(F)F)C2O)nc1C(F)(F)F` (racemic) [A3-231]: the insecticidal activity in test [1] (setting [4]) and in test [1] (setting [5]) was 100% in each case. In addition, the acaricidal activity in test [2] (setting [4]) and in test [2] (setting [5]) was 100% in each case. Further, in the test with Thrips palmi, the “insecticidal activity (by feeding damage degree)” value is 90%. In addition, in test [3] (setting [4]), the “insecticidal activity (pesticidal ratio)” value is 80%.
Consider `CC(=O)NCc1ccc(N2CCC(c3cc(C(F)(F)F)cc(C(F)(F)F)c3)(C(F)(F)F)C2O)cc1Br` (stereo not shown) [A1-216], for which the insecticidal activity in test [1] (setting [4]) is reported as 100%. For the same compound, the acaricidal activity in test [2] (setting [4]) came to 90%. In addition, in the test on Thrips palmi, the “insecticidal activity (by feeding damage degree)” value amounted to 90%. In addition, the “insecticidal activity (pesticidal ratio)” value in test [3] (setting [4]) came out at 100%.
For the compound `CC(C)C(=O)NCc1ccc(N2CCC(c3cc(Cl)c(Cl)c(Cl)c3)(C(F)(F)F)C2O)nc1C(F)(F)F` (stereo not shown) [A3-15], the acaricidal activity in test [2] (setting [4]) and in test [2] (setting [5]) was 100% in each case. Besides, in the test on Thrips palmi, the “insecticidal activity (by feeding damage degree)” value turned out to be 90%. The “insecticidal activity (pesticidal ratio)” value in test [3] (setting [4]) and in test [3] (setting [5]) was 100% each time.
`O=C(CC1CC1)NCc1ccc(N2CCC(c3cc(Cl)c(Cl)c(Cl)c3)(C(F)(F)F)C2O)nc1C(F)(F)F` (stereo not shown) [A3-17]: the acaricidal activity in test [2] (setting [4]) and in test [2] (setting [5]) was 100% in each case. In the test with Thrips palmi, the “insecticidal activity (by feeding damage degree)” value came out at 90%. In addition, the “insecticidal activity (pesticidal ratio)” value in test [3] (setting [4]) and in test [3] (setting [5]) was 100% each time.
`CCC(=O)NCc1ccc(N2CCC(c3cc(Cl)cc(Cl)c3F)(C(F)(F)F)C2O)nc1C(F)(F)F` (stereo not shown) [A3-345] yielded an insecticidal activity in test [1] (setting [4]) of 100%. The compound also displayed an acaricidal activity in test [2] (setting [5]) of 100%. Further, the “insecticidal activity (pesticidal ratio)” value in test [3] (setting [4]) is 100%.
`CC(=O)NCc1cc(F)c(N2CCC(c3cc(Cl)c(Cl)c(Cl)c3)(C(F)(F)F)C2O)nc1Cl` (stereo not shown) [A3-366]: the “insecticidal activity (by feeding damage degree)” value with Thrips palmi turned out to be 98%. For the same compound, the “insecticidal activity (pesticidal ratio)” value in test [3] (setting [4]) is listed as 100%.
In the same order, the values of `CCC(=O)NCc1cc(F)c(N2CCC(c3cc(Cl)c(Cl)c(Cl)c3)(C(F)(F)F)C2O)nc1Cl` (stereo not shown) [A3-367] are 90% and 100%.
For `O=C(NCc1cnc(N2CCC(c3cc(Cl)c(Cl)c(Cl)c3)(C(F)(F)F)C2O)nc1C(F)(F)F)C1CC1` (stereo not shown) [A4-16, N-({2-[2-hydroxy-3-(3,4,5-trichlorophenyl)-3-(trifluoromethyl)-pyrrolidin-1-yl]-4-(trifluoromethyl)pyrimidin-5-yl}methyl)cyclopropanecarboxamide], the pest or weed control at 20 ppm in test [1] (Aulacophora, foliar, 168 h, active compound concentration 20 ppm, read-out: insecticidal activity) is 100%; in test [2] (Tetranychus urticae, 168 h, active compound concentration 20 ppm, read-out: acaricidal activity), 100%; in test [3] (Spodoptera litura, 168 h, active compound concentration 20 ppm, read-out: insecticidal activity (pesticidal ratio)), 100%.
The compound `O=C(CC(F)(F)F)NCc1cnc(N2CCC(c3cc(Cl)c(Cl)c(Cl)c3)(C(F)(F)F)C2O)nc1C(F)(F)F` (stereo not shown) [A4-18] had an insecticidal activity in test [1] (setting [5]) of 100%. This compound yielded an acaricidal activity in test [2] (setting [5]) of 100%. For the same compound, the “insecticidal activity (pesticidal ratio)” value in test [3] (setting [5]) was 100%.
`CSCC(=O)NCc1cnc(N2CCC(c3cc(Cl)c(Cl)c(Cl)c3)(C(F)(F)F)C2O)nc1C(F)(F)F` (stereo not shown) [A4-20] registered an insecticidal activity in test [1] (setting [5]) of 100%. The compound also had an acaricidal activity in test [2] (setting [5]) of 100%. Further, the “insecticidal activity (pesticidal ratio)” value in test [3] (setting [5]) amounted to 100%.
Compound `C[S+]([O-])CC(=O)NCc1cnc(N2CCC(c3cc(Cl)c(Cl)c(Cl)c3)(C(F)(F)F)C2O)nc1C(F)(F)F` (stereo not shown) [A4-21] had an insecticidal activity in test [1] (setting [5]) of 100%. The compound further yielded an acaricidal activity in test [2] (setting [5]) of 100%. Besides, the “insecticidal activity (pesticidal ratio)” value in test [3] (setting [5]) was 100%.
With `CS(=O)(=O)CC(=O)NCc1cnc(N2CCC(c3cc(Cl)c(Cl)c(Cl)c3)(C(F)(F)F)C2O)nc1C(F)(F)F` (stereo not shown) [A4-22], the insecticidal activity in test [1] (setting [5]) was 100%. In test [2] (setting [5]), this compound yielded an acaricidal activity of 100%. Also, the “insecticidal activity (pesticidal ratio)” value in test [3] (setting [5]) was found to be 100%.
Take `CCC(=O)NCc1cnc(N2CCC(c3cc(C(F)(F)F)cc(C(F)(F)F)c3)(C(F)(F)F)C2O)nc1C(F)(F)F` (stereo not shown) [A4-24]: in test [1] (setting [5]), the insecticidal activity came out at 100%. Also, the acaricidal activity in test [2] (setting [5]) is 100%. For the same compound, the “insecticidal activity (pesticidal ratio)” value in test [3] (setting [5]) was 100%.
`O=C(NCc1cnc(N2CCC(c3cc(C(F)(F)F)cc(C(F)(F)F)c3)(C(F)(F)F)C2O)nc1C(F)(F)F)C1CC1` (stereo not shown) [A4-27] came in with an insecticidal activity in test [1] (setting [5]) of 100%. This compound had an acaricidal activity in test [2] (setting [5]) of 100%. Moreover, in test [3] (setting [5]), the “insecticidal activity (pesticidal ratio)” value is listed as 100%.
For `O=C(CC(F)(F)F)NCc1cnc(N2CCC(c3cc(C(F)(F)F)cc(C(F)(F)F)c3)(C(F)(F)F)C2O)nc1C(F)(F)F` (stereo not shown) [A4-29], the insecticidal activity in test [1] (setting [5]) was 100%. In test [2] (setting [5]), the acaricidal activity is reported as 100%. For the same compound, the “insecticidal activity (pesticidal ratio)” value in test [3] (setting [5]) is 100%.
Take `COCCC(=O)NCc1cnc(N2CCC(c3cc(C(F)(F)F)cc(C(F)(F)F)c3)(C(F)(F)F)C2O)nc1C(F)(F)F` (stereo not shown) [A4-30]: the insecticidal activity in test [1] (setting [5]) turned out to be 100%. In test [2] (setting [5]), the acaricidal activity stood at 100%. The “insecticidal activity (pesticidal ratio)” value in test [3] (setting [5]) was found to be 100%.
`CSCC(=O)NCc1cnc(N2CCC(c3cc(C(F)(F)F)cc(C(F)(F)F)c3)(C(F)(F)F)C2O)nc1C(F)(F)F` (stereo not shown) [A4-31] showed an insecticidal activity in test [1] (setting [5]) of 100%. Also, the acaricidal activity in test [2] (setting [5]) came to 100%. The “insecticidal activity (pesticidal ratio)” value in test [3] (setting [5]) came to 100%.
Compound `C[S+]([O-])CC(=O)NCc1cnc(N2CCC(c3cc(C(F)(F)F)cc(C(F)(F)F)c3)(C(F)(F)F)C2O)nc1C(F)(F)F` (stereo not shown) [A4-32] had an insecticidal activity in test [1] (setting [5]) of 100%. In test [2] (setting [5]), the acaricidal activity was 100%. For the same compound, in test [3] (setting [5]), the “insecticidal activity (pesticidal ratio)” value came to 100%.
Consider `CS(=O)(=O)CC(=O)NCc1cnc(N2CCC(c3cc(C(F)(F)F)cc(C(F)(F)F)c3)(C(F)(F)F)C2O)nc1C(F)(F)F` (stereo not shown) [A4-33], for which, in test [1] (setting [5]), the insecticidal activity turned out to be 100%. Moreover, the acaricidal activity in test [2] (setting [5]) was 100%. The “insecticidal activity (pesticidal ratio)” value in test [3] (setting [5]) is listed as 100%.
Consider `CCC(=O)NCc1cnc(N2CCC(c3cc(Cl)c(Cl)c(Cl)c3)(C(F)(F)F)C2O)nc1C(F)F` (stereo not shown) [A4-216], for which the insecticidal activity in test [1] (setting [5]) worked out at 100%. In addition, in test [2] (setting [4]), the acaricidal activity amounted to 100%. The “insecticidal activity (pesticidal ratio)” value in test [3] (setting [4]) is given as 100%.

(Values after patent US9375000B2, “Pesticidal arylpyrrolidines” (Bayer Intellectual Property GmbH, priority 2011, dated 2016).)
